7 compounds from ChEMBL document CHEMBL1152079, “Synthesis and biological evaluation of novel 2-vinyl carbapenems. Remarkable DHP-1 stability of 1-substituted analogs” (1996) can be followed below.

≈ marks a conversion by molar mass, not a printed value. A value given as a limit tells only on which side of the number the result lay.

The target of assay [1] is T1, Dipeptidase 1 (Sus scrofa) (UniProt P22412).
T1 sequence (whole entry): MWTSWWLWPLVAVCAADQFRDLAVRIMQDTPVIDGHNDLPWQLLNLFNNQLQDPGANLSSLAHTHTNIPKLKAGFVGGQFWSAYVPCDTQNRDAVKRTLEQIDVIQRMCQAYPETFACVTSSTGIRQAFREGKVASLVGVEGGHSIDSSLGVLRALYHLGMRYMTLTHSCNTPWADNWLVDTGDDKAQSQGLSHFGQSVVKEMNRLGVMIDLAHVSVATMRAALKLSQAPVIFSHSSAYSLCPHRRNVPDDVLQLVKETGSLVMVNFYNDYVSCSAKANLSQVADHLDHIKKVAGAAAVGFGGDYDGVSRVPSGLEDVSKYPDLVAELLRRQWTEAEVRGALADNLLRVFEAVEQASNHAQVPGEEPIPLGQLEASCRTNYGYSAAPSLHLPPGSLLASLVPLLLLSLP
Description: Susceptibility relative to imipenem was measured against Swine renal Dehydropeptidase-1.

The test system of a further assay is Escherichia coli. The assay is described as follows: Compound was tested for its minimal inhibitory concentration against Escherichia coli NIHJ JC-2. It is filed as functional.
Assay [2] deals with Mus musculus. The assay is described as follows: Percent urinary recovery was measured in mice after subcutaneous administration at dose 20 mg/kg. Further details: dose 20 mg/kg. As to conditions: Urine. It is filed as functional, organism-based.
Another assay has as its system Pseudomonas aeruginosa. Description: Compound was tested for its minimal inhibitory concentration against Pseudomonas aeruginosa 26. It is filed as functional.
The test system of a further assay is Proteus vulgaris. Description: Compound was tested for its minimal inhibitory concentration against Proteus vulgaris IAM 1025. It counts as functional.
The test system of assay [3] is Staphylococcus aureus. Description: Compound was tested for its minimal inhibitory concentration against Staphylococcus aureus 209 JC-1. It counts as functional.
The subject of assay [4] is Staphylococcus aureus. Description: Compound was tested for its minimal inhibitory concentration against Staphylococcus aureus 3004 (Methicillin resistant S. aureus). It is filed as functional.
The species named for assay [5] is Mus musculus. The assay is described as follows: Susceptibility relative to meropenem was measured against mouse DHP-1.
The species entered for another assay is Oryctolagus cuniculus. The assay is described as follows: Susceptibility relative to meropenem was measured against rabbit DHP-1.
In a further assay the test system is Cercopithecidae. Description: Susceptibility relative to meropenem was measured against monkey DHP-1.
Assay [6] addresses Dipeptidase 1 (Rattus norvegicus) (UniProt P31430). The assay is described as follows: Susceptibility relative to meropenem was measured against rat Dehydropeptidase-1.
In assay [7] the test system is Dipeptidase 1 (Canis lupus familiaris). Description: Susceptibility relative to meropenem was measured against dog Dehydropeptidase-1.
In assay [8] the target is Dipeptidase 1 (Homo sapiens) (UniProt P16444). The assay is described as follows: Susceptibility relative to meropenem was measured against human Dehydropeptidase-1.
Chain of Dipeptidase 1 (Homo sapiens) (P16444 whole entry, looked up): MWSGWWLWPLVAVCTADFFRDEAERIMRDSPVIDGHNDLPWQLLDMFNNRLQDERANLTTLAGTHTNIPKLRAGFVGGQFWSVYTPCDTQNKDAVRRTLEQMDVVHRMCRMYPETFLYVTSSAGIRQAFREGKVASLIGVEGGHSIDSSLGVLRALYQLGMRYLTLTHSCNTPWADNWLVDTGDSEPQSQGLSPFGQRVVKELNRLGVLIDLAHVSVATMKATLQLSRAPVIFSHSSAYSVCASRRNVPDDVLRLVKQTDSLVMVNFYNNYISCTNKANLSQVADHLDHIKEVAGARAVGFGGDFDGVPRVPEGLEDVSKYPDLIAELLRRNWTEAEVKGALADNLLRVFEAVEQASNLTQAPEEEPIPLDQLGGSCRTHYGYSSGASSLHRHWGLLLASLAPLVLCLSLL

Chain of Dipeptidase 1 (Rattus norvegicus) (P31430 whole entry, looked up): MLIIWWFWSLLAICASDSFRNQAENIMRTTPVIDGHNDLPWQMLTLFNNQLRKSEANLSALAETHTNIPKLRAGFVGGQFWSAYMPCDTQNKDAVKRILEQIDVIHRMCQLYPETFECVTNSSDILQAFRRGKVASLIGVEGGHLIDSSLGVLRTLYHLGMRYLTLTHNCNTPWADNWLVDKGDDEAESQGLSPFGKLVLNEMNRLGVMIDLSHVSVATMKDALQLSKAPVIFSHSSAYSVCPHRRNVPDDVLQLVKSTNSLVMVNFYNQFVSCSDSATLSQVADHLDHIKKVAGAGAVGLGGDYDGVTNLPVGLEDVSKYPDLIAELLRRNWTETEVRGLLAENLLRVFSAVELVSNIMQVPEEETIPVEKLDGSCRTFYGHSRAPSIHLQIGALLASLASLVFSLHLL

A word on the MIC: it is the smallest concentration in the dilution series that meets the test's criterion for growth inhibition. Regarding `C[C@@H](O)[C@H]1C(=O)N2C(C(=O)O)=C(SCCNC=N)C[C@H]12.O` [IMIPENEM], the Susceptibility in assay [1] was determined as 1. In addition, the MIC against Escherichia coli is 0.78 µg/mL; in the assay with Pseudomonas aeruginosa, 0.78 µg/mL; with Proteus vulgaris, 3.13 µg/mL; in the assay with Staphylococcus aureus [3], less than 0.025 µg/mL; against Staphylococcus aureus [4] it was 100 µg/mL. Besides, in the assay on Mus musculus [2], the Recovery came out at 28.9%.
As to `C/C(=C\[C@@H]1CCCN1)C1=C(C(=O)O)N2C(=O)[C@H]([C@@H](C)O)[C@H]2C1`, the Susceptibility in the assay listed under Mus musculus [5] is 0.45; in assay [1] it was 0.036; in the assay listed under Oryctolagus cuniculus it was 0.015; in the assay with Cercopithecidae, 0.032; in assay [6] it was 0.11; in assay [7] it was 0.249. In [8], this compound displayed a Susceptibility of 0.45. Further, the MIC against Escherichia coli was 0.39 µg/mL (≈ 1.27 µM); in the assay on Pseudomonas aeruginosa, 3.13 µg/mL (≈ 10.2 µM); in the assay with Proteus vulgaris, 1.56 µg/mL (≈ 5.09 µM); in the assay with Staphylococcus aureus [3] it was less than 0.025 µg/mL; with Staphylococcus aureus [4], 50 µg/mL (≈ 163 µM). Besides, in the assay on Mus musculus [2], the Recovery came out at 67.8%.
`C[C@@H](O)[C@H]1C(=O)N2C(C(=O)O)=C(/C(=C/[C@@H]3CCCN3)CN)C[C@H]12`: in assay [1], the Susceptibility worked out at 0.004. The MIC in the assay on Escherichia coli was 100 µg/mL (≈ 311 µM); against Pseudomonas aeruginosa, greater than 100 µg/mL; against Proteus vulgaris, greater than 100 µg/mL; in the assay on Staphylococcus aureus [3], 0.78 µg/mL (≈ 2.43 µM); against Staphylococcus aureus [4], greater than 100 µg/mL. The Recovery in the assay with Mus musculus [2] was 52.1%.
In assay [1], `C[C@@H](O)[C@H]1C(=O)N2C(C(=O)O)=C(/C=C/[C@@H]3CCCN3)[C@H](C)[C@H]12` showed a Susceptibility of 0.043. In addition, the MIC against Escherichia coli is 0.78 µg/mL (≈ 2.55 µM); against Pseudomonas aeruginosa it was 3.13 µg/mL (≈ 10.2 µM); in the assay with Proteus vulgaris it was 6.25 µg/mL (≈ 20.4 µM); in the assay on Staphylococcus aureus [3] it was less than 0.025 µg/mL; against Staphylococcus aureus [4] it was 100 µg/mL (≈ 326 µM). In the assay on Mus musculus [2], this compound returned a Recovery of 60.7%.
Compound `COC/C(=C\[C@@H]1CCCN1)C1=C(C(=O)O)N2C(=O)[C@H]([C@@H](C)O)[C@H]2C1` yielded a Susceptibility in assay [1] of less than 0.008. Moreover, the MIC is 0.78 µg/mL (≈ 2.32 µM) in the assay on Escherichia coli; 25 µg/mL (≈ 74.3 µM) against Pseudomonas aeruginosa; 50 µg/mL (≈ 149 µM) in the assay on Proteus vulgaris; 0.2 µg/mL (≈ 0.595 µM) with Staphylococcus aureus [3]; greater than 100 µg/mL in the assay on Staphylococcus aureus [4]. The compound further registered a Recovery with Mus musculus [2] of 64.4%.
In [1], `CSC/C(=C\[C@@H]1CCCN1)C1=C(C(=O)O)N2C(=O)[C@H]([C@@H](C)O)[C@H]2C1` registered a Susceptibility of less than 0.006. The MIC against Escherichia coli was 0.78 µg/mL (≈ 2.21 µM); with Pseudomonas aeruginosa it was 25 µg/mL (≈ 70.9 µM); with Proteus vulgaris it was 3.13 µg/mL (≈ 8.88 µM); against Staphylococcus aureus [3], 0.1 µg/mL (≈ 0.284 µM); in the assay on Staphylococcus aureus [4], 100 µg/mL (≈ 284 µM). Besides, in the assay with Mus musculus [2], the Recovery is 54.3%.
In assay [1], `C[C@@H](O)[C@H]1C(=O)N2C(C(=O)O)=C(/C=C/[C@@H]3CCCN3)C[C@H]12` yielded a Susceptibility of 0.22. In addition, the MIC against Escherichia coli was 1.56 µg/mL (≈ 5.34 µM); against Pseudomonas aeruginosa, 3.13 µg/mL (≈ 10.7 µM); against Proteus vulgaris it was 1.56 µg/mL (≈ 5.34 µM); in the assay on Staphylococcus aureus [3] it was 0.1 µg/mL (≈ 0.342 µM); against Staphylococcus aureus [4] it was greater than 100 µg/mL. In the assay on Mus musculus [2], this compound registered a Recovery of 20.2%.
